Measurements from patent publication US20230055705A1, “SUBSTITUTED THIOPHENE CARBOXAMIDES AND DERIVATIVES THEREOF” (Bayer Aktiengesellschaft, priority 2019, published 2023).

Key:
[1] = test system: Xanthomonas campestris pv. campestris; experiment: In vivo preventive test on Xanthomonas campestris pv. campestris (black rot on cabbage); details: 31 ppm of active ingredient, evaluated 8 or 10 days after inoculation, read-out: efficacy
Outline: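 Young cabbage plants sprayed with compound in acetone/DMSO/Tween diluted in water; solvent-only controls. Leaves sprayed with bacterial suspension 72 h later, then held 8 or 10 days at 27° C and 95% relative humidity. Efficacy scored 8 or 10 days post-inoculation, 0% matching controls, 100% meaning no disease.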

young plants of cabbage [2] = experiment: Phytotoxicity observed in the in vivo preventive test on Xanthomonas campestris pv. campestris; details: for phytotoxicity: 125 ppm
Method: The young plants of cabbage were treated by spraying the active ingredient prepared as described above. Control plants were treated only with an aqueous solution of acetone/Dimethyl sulfoxide/Tween®.
After 72 hours, the plants were contaminated by spraying the leaves with an aqueous bacteria suspension of Xanthomonas campestris pv. campestris. The contaminated cabbage plants were incubated for 8 or 10 days at 27° C. at 95% relative humidity.
Compounds CMP1, CMP2, CMP3 and CMP4 were tested in an in vivo preventive test on Xanthomonas campestris pv. campestris (black rot on cabbage) in the same conditions as described in Example H.

young plants of cabbage [3] = experiment: Phytotoxicity observed in the in vivo preventive test on Peronospora parasitica; details: for phytotoxicity: 500 ppm
Method: The tested active ingredients were prepared by homogenization in a mixture of acetone/Dimethyl sulfoxide/Tween®, and then diluted with water to obtain the desired active material concentration. The young plants of cabbage were treated by spraying the active ingredient prepared as described above. Control plants were treated only with an aqueous solution of acetone/Dimethyl sulfoxide/Tween®.
After 72 hours, the plants were contaminated by spraying the leaves with an aqueous suspension of Peronospora parasitica spores. The contaminated cabbage plants were incubated for 5 days at 20° C. and at 100% relative humidity.
Compounds CMP2 and CMP3 were tested in an in vivo preventive test on Peronospora parasitica (Crucifer downy mildew) in the same conditions as described in Example G.

[4] = test system: salicylate responsive promoter sequence of the PR1 (pathogenesis-related protein I) gene (AT2G14610); experiment: Induction of defense gene expression in Arabidopsis thaliana (PR1 promoter-GFP reporter plants); type: in vivo; details: Arabidopsis thaliana, 72 h, 3rd day after spraying, mock treated leaves set as 1.00, read-out: relative fluorescence value; for fold induction at 75 ppm: 75 ppm of compound
Outline: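 Transgenic A. thaliana carrying GFP under the salicylate-responsive PR1 promoter, grown five days, then sprayed with compounds. Whole-plant fluorescence imaged and quantified on day 3 post-spray, expressed relative to mock-treated leaf background set at 1.00.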

Alternaria alternata = Alternaria alternata in vitro cell test; type: cell-based; details: 120 h, 20 ppm of active ingredient, 5 days incubation, read-out: efficacy (inhibition of fungal growth)
Method: (§1) • Solvent: DMSO • Culture medium: 14.6 g anhydrous D-glucose (VWR), 7.1 g Mycological Peptone (Oxoid), 1.4 g granulated Yeast Extract (Merck), QSP 1 liter • Inoculum: spores suspension
(§2) Fungicides were solubilized in DMSO and the solution used to prepare the required range of concentrations. The final concentration of DMSO used in the assay was ≤[…]1%.
A spore suspension of A. alternata was prepared and diluted to the desired spore density.
(§3) Fungicides were evaluated for their ability to inhibit spore germination and mycelium growth in liquid culture assay. The compounds were added in the desired concentration to the culture medium with spores. After 5 days incubation, fungi-toxicity of compounds was determined by spectrometric measurement of mycelium growth. Inhibition of fungal growth was determined by comparing the absorbance values in wells containing the fungicides with the absorbance in control wells without fungicides.

[5] = test system: Colletotrichum lindemuthianum; experiment: Colletotrichum lindemuthianum in vitro cell test; type: cell-based; details: 144 h, 20 ppm of active ingredient, 6 days incubation, read-out: efficacy (inhibition of fungal growth)
Method: as §1, §2
A spore suspension of C. lindemuthianum was prepared and diluted to the desired spore density.
as §3, with “inhibit spores” for “inhibit spore”, “After 6” for “After 5”

[6] = test system: Xanthomonas campestris pv. campestris; experiment: Xanthomonas campestris pv. campestris in vitro cell test; type: cell-based; details: 20 ppm of active ingredient, 24 h incubation, read-out: efficacy (inhibition of bacteria growth)
Method: • Solvent: DMSO • Culture medium: LB broth medium (Luria Broth Miller) Sigma • Inoculum: bacteria suspension
Compounds were solubilized in DMSO and the solution used to prepare the required range of concentrations. The final concentration of DMSO used in the assay was ≤1%.
(§4) Inoculum was prepared from a pre-culture of bacteria grown in liquid medium and diluted to the desired optical density (OD).
(§5) Compounds were evaluated for their ability to inhibit bacteria growth in liquid culture assay. The compounds were added in the desired concentrations to culture medium containing the bacteria suspension. After 24 h of incubation, the efficacy of compounds was determined by spectrometric measurement of bacteria growth. Inhibition was determined by comparing the absorbance values in wells containing the compounds with the absorbance in control wells without active ingredients.

[7] = test system: Pseudomonas syringae pv. tomato; experiment: Pseudomonas syringae pv. tomato in vitro cell test; type: cell-based; details: 20 ppm of active ingredient, 24 h incubation, read-out: efficacy (inhibition of bacteria growth)
Method: Culture medium: LB broth medium (Luria Broth Miller) Sigma
Inoculum: bacteria suspension
Compounds were solubilized in DMSO and the solution used to prepare the required range of concentrations. The final concentration of DMSO used in the assay was 1%.
as §4, §5

Peronospora parasitica = experiment: In vivo preventive test on Peronospora parasitica (Crucifer downy mildew); details: Hyaloperonospora parasitica, in Brassica oleracea, 120 h, cabbage, evaluated 5 days after inoculation, read-out: efficacy; for pest or weed control at 31 ppm: 31 ppm of active ingredient; for pest or weed control at 125 ppm: 125 ppm of active ingredient
Outline: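 Young cabbage plants were sprayed with compound in acetone/DMSO/Tween diluted with water, then inoculated 72 h later with a Peronospora parasitica spore suspension. Plants were kept 5 days at 20 °C and 100% RH. Efficacy was scored with 0% equal to solvent-treated controls and 100% meaning no disease.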

Uromyces appendiculatus = experiment: In vivo preventive test on Uromyces appendiculatus (bean rust); details: 240 h, 125 ppm of active ingredient, evaluated 10 days after inoculation, read-out: efficacy
Outline: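 Young bean plants sprayed with compound in acetone/DMSO/Tween diluted in water, inoculated 72 h later with U. appendiculatus spore suspension. Held 24 h at 20 °C, 100% RH, then 9 days at 20 °C, 70-80% RH. Efficacy scored 10 days post-inoculation versus solvent-treated controls (0% = control, 100% = no disease).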

[8] = test system: Pseudomonas syringae pv. tomato; experiment: In vivo preventive test on Pseudomonas syringae pv. tomato (bacterial speck on tomato); details: 31 ppm of active ingredient, evaluated 5 or 6 days after inoculation, read-out: efficacy
Outline: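 Young tomato plants sprayed with compound in acetone/DMSO/Tween diluted in water; solvent-only controls. Inoculated 72 h later by spraying leaves with bacterial suspension; 4 days saturated atmosphere then 1–2 days at 70–80% RH, 22 °C day/20 °C night. Efficacy scored 5–6 days post-inoculation, 0% = control, 100% = no disease.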

[9] = LogP by HPLC on reversed phase columns (EEC directive 79/831 Annex V.A8); type: physicochemical; details: reversed phase HPLC columns
Outline: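 LogP derived from retention time by linear interpolation against a C3–C16 alkan-2-one calibration series of known LogP. Measured by HPLC on reversed-phase columns following EEC 79/831 Annex V.A8. UV spectra over 200–400 nm at signal peaks gave lambda-max.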

[10] = test system: Colletotrichum lindemuthianum; experiment: In vivo preventive test on Colletotrichum lindemuthianum (Antrachnose on bean); details: 144 h, 31 ppm of active ingredient, inoculation 72 h after spraying, evaluated 6 days after inoculation, read-out: efficacy
Outline: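 Young bean plants sprayed preventively with compound in acetone/DMSO/Tween diluted in water, then spore-inoculated 72 h later. Incubation 24 h at 20° C./100% RH, then 5 days at 20° C./90% RH; scored 6 days post-inoculation as % efficacy (0% = solvent-treated control, 100% = no disease).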

[11] = method [a]: LC-UV, in an acidic range, with 0.1% formic acid in water and acetonitrile as eluent (linear gradient from 10% to 95% acetonitrile)
[12] = method [a]: LC-UV, acidic range, 0.1% formic acid in water and acetonitrile as eluent (linear gradient 10% to 95% acetonitrile)

Row | chromatographic logP [9, 11] | chromatographic logP ([9]; given in the preparation examples, method not marked) | chromatographic logP [9, 12] | SMILES | pest or weed control at 31 ppm [1] [%] | phytotoxicity (in place of Efficacy (%) at 125 ppm) (young plants of cabbage [2]) | phytotoxicity (young plants of cabbage [2]) | phytotoxicity (in place of Efficacy (%) at 500 ppm) (young plants of cabbage [3]) | phytotoxicity (young plants of cabbage [3]) | fold induction at 75 ppm [4] | fold induction at 300 ppm [4] | inhibition at 20 ppm (Alternaria alternata) [%] | inhibition at 20 ppm [5] [%] | inhibition at 20 ppm [6] [%] | inhibition at 20 ppm [7] [%] | pest or weed control at 31 ppm (Peronospora parasitica) [%] | pest or weed control at 125 ppm (Peronospora parasitica) [%] | pest or weed control at 125 ppm (Uromyces appendiculatus) [%] | pest or weed control at 31 ppm [8] [%] | pest or weed control at 31 ppm [10] [%]
1 | – | – | – | COC(=O)[C@H](C)NC(=O)c1sc(Cl)c(Cl)c1Cl [CMP2] | < 40 | * (No efficacy measured due to over 80% phytotoxicity observed) | over 80% | * (No efficacy measured due to over 80% phytotoxicity observed) | over 80% | – | – | – | – | – | – | – | – | – | – | –
2 | – | – | – | CCOC(=O)[C@H](C)NC(=O)c1sc(Cl)c(Cl)c1Cl [CMP3] | 0 | * (No efficacy measured due to over 80% phytotoxicity observed) | over 80% | * (No efficacy measured due to over 80% phytotoxicity observed) | over 80% | – | – | – | – | – | – | – | – | – | – | –
3 | 3.31 | – | – | COC(=O)C(NC(=O)c1sc(Cl)c(Cl)c1Cl)C(=O)OC [I.007] | – | – | – | – | – | > 2 | > 2 | ≤ 30 | ≤ 30 | ≤ 30 | ≤ 30 | 90 to 100 | 90 to 100 | 90 to 100 | 80 to 89 | –
4 | 1.89 | 1.89 | – | NC(=O)CNC(=O)c1sc(Cl)c(Cl)c1Cl [I.066, N-(2-amino-2-oxoethyl)-3,4,5-trichlorothiophene-2-carboxamide] | – | – | – | – | – | > 2 | > 2 | ≤ 30 | ≤ 30 | ≤ 30 | ≤ 30 | 90 to 100 | 90 to 100 | 90 to 100 | 80 to 89 | 70 to 79
5 | – | – | 4.21 | CCOC(=O)CC[C@H](NC(=O)c1sc(Cl)c(Cl)c1Cl)C(=O)OCC [I.137] | 80 to 89 | – | – | – | – | > 2 | > 2 | ≤ 30 | ≤ 30 | ≤ 30 | ≤ 30 | 90 to 100 | 90 to 100 | 90 to 100 | – | 80 to 89
6 | – | – | 3.36 | COC(=O)CC[C@H](NC(=O)c1sc(Cl)c(Cl)c1Cl)C(=O)OC [I.139] | – | – | – | – | – | > 2 | > 2 | ≤ 30 | ≤ 30 | ≤ 30 | ≤ 30 | 90 to 100 | 90 to 100 | 90 to 100 | 80 to 89 | 70 to 79
